Measurements taken from paper PMC8143291, “Cytotoxicity and Microbicidal Activity of Commonly Used Organic Solvents: A Comparative Study and Application to a Standardized Extract from Vaccinium macrocarpon” (Toxics, 2021).

Tests used:
[1] = tested on: breast cancer, mouse macrophage and human umbilical vein endothelial cells; set-up: method as in doi:10.17795/ajmb-33453; settings: cited from earlier work
[2] = tested on: HaCaT (immortalized human keratinocytes); experiment: MTT dye-reduction cytotoxicity assay (ISO 10993-5); format: cell-based; settings: solvent alone, 72 h, at least 70% of cells viable, n = 3
Excerpt: (§1) The cell lines utilized in this study included the human tumor lines A-375 (malignant melanoma) and A-431 (non-melanoma epidermoid squamous skin carcinoma) as well as the models for non-tumorigenic cells—HaCaT (immortalized human keratinocytes) and CCL-1^TM (transformed mouse fibroblasts, NCTC clone 929). The first three cell lines were obtained from CLS Cell Lines Service (GmbH, Eppelheim, Germany). CCL-1^TM was purchased from the American Type Culture Collection (ATCC, Manassas, VA, USA). Cells were maintained in a controlled environment—sterile cell culture flasks in a CO2 incubator Panasonic MCO-18AC (Panasonic Healthcare co., ltd, Oizumi-Machi, Japan) at 37 °C and a humidified atmosphere containing 5% CO2. CCL-1 was cultured in MEM with 10% heat-inactivated horse serum and 2 mM L-glutamine, and the cell culture medium for the rest of the cell lines was DMEM-HG with 4.5 g/L glucose with the addition of 10% heat-inactivated fetal bovine serum and 4 mM L-glutamine. Pen/strep (concentration of penicillin G sodium 10^5 Units/L and of streptomycin sulfate 100 mg/L) was added to both culture media. The cell lines were maintained as an adherent monolayer in a log phase. The cells were sub-cultivated about 1–3 times per week after the monolayer reached 80–90% confluence. The medium was removed from the flask, and the cell monolayer was washed with 3–5 mL PBS. The cells were incubated with 0.05% EDTA in PBS for 8–10 min, followed by the next step where all cell lines were subjected to enzyme cell detachment. HaCaT and CCL-1 monolayers were detached with 1 mL solution of trypsin/EDTA (0.1%/0.05% for HaCaT and 0.25% (w/v)/0.53 mM for CCL-1) and incubated for 2–5 min at 37 °C (for HaCaT) or at room temperature (for CCL-1 cells), whereas Accutase® was used for A-375 and A-431 lines. The incubation lasted until the separation and dispersion of the cells in the monolayer were observed using light microscopy. In the end, all cell lines were resuspended in 10 mL medium and centrifuged for 3 min at 300× g. The cell pellet was resuspended in fresh medium and sub-cultivated at a seeding density of 1.0 × 10^4 cells/cm^2.
(§2) The MTT test was performed in order to determine the median inhibitory (IC50) and MTC concentrations of the solvents and PAC according to Annex C, ISO 10993-5 [2, 21]. Briefly, 100 µL of the cell suspension (1 × 10^5 cells/mL) were seeded per well in 96-well plates with a flat bottom. The cells were incubated for 24 h, allowing them to enter the log phase of their growth. On the 24th hour, the cells were treated with the solvents or CystiCran® solutions in concentrations ranging between 0.004% and 2% volume fraction (v/v) and incubated further for 72 h. The incubation periods are following the recommendations of the FDA guide for the use of ISO 10993-1 [1]. At the end of the incubation period, 10 µL of an MTT solution (5 mg/mL) were added to each well, and the plates were kept at 37 °C for 2 hours. Thereafter, the medium was aspirated, and the formed formazan crystals were dissolved in 100 μL/well of 2-propanol supplemented with 5% formic acid. The same solvent was used as a blank. Untreated cells were considered as a negative control. […] The absorption was measured at 540 nm (reference filter at 690 nm) on a microplate reader ELx800 (BioTek Instruments, Inc., Winooski, VT, Winooski, VT, USA).
(§3) The IC50 values from the MTT assay were evaluated with a non-linear regression analysis (Curve fit, GraphPad Prizm 6.01 software, GraphPad Software Inc., San Diego, CA, USA) using sigmoidal concentration–response curves. The cell viability is presented as a percentage of the untreated control. At least four wells were seeded for every concentration. Three independent assays were performed (n = 3).

[3] = tested on: CCL-1 (transformed mouse fibroblasts, NCTC clone 929); experiment: MTT dye-reduction cytotoxicity assay (ISO 10993-5); format: cell-based; settings: solvent alone, 72 h, at least 70% of cells viable, n = 3
Excerpt: as §1, §2, §3

Bacillus subtilis = settings: cited from earlier work

CN(C)C=O [DMF, N,N-dimethylformamide]
maximum tolerated concentration (MTC) / applicable concentration [1]: 0.1 % v/v
MTC (maximum tolerated concentration) [2]: 0.03 % (v/v)
MTC (maximum tolerated concentration) [3]: 0.03 % (v/v)
tolerated concentration (Bacillus subtilis): ≥ 10 % v/v
